In US12600714B2, “Substituted pyrazinecarboxamide compounds for treating diseases related to EGFR mutation” (WIGEN BIOMEDICINE TECHNOLOGY (SHANGHAI) CO., LTD., priority 2020, dated 2026):

Tested on: EGFR (del19/T790M/C797S)
Test: HTRF inhibitory activity assay against EGFR (del19/T790M/C797S) enzyme
Type: biochemical
Experimental: Inhibitory Activity Assay of the Compounds Disclosed Herein Against EGFR (del19/T790M/C797S), EGFR (L858R/T790M/C797S) or EGFR (WT) Enzymes
The inhibitory effects of the compounds against EGFR (del19/T790M/C797S), EGFR (L858R/T790M/C797S) or EGFR (WT) enzyme activity was determined by using HTRF. The procedures are as follows:
The WT or mutant EGFR proteins were incubated with a serially diluted compounds at 28° C. for 10 min followed by addition of biotin-labeled general tyrosine kinase (TK) substrate and ATP. The mixture was incubated at room temperature for 40 min for reaction. After the termination of the reaction, an Eu3+-Cryptate-labeled antibody against TK and streptavidin-XL665 were added and the mixture was incubated at room temperature for 60 min. The luminescences at 615 nm and 665 nm were detected and the ratio of 665/615 was calculated to quantify the level of TK substrate phosphorylation. Inhibition % and IC50 of the compounds were calculated relative to the control group.

Row | SMILES | EGFR (del19/T790M/C797S) inhibition (%) (0.3 nM compound)
1 | CN1CCN(C2CCN(c3ccc(Nc4nc(Oc5ccccc5)c(-c5ccccc5)nc4C(N)=O)cc3)CC2)CC1 [compound 6] | + (+ indicates an inhibition less than or equal to 20%)
2 | CN1CCC(Nc2nc(Nc3ccc(N4CCC(N5CCN(C)CC5)CC4)cc3)c(C(N)=O)nc2-c2ccccc2)CC1 [compound 7] | + (+ indicates an inhibition less than or equal to 20%)
3 | CN1CCN(C2CCN(c3ccc(Nc4nc(NC5CCCC5(C)O)c(-c5ccccc5)nc4C(N)=O)cc3)CC2)CC1 (stereo not drawn) [compound 8] | + (+ indicates an inhibition less than or equal to 20%)
4 | CN1CCN(C2CCN(c3ccc(Nc4nc(NC5CCCC5)c(-c5ccccc5)nc4C(N)=O)cc3)CC2)CC1 [compound 9] | + (+ indicates an inhibition less than or equal to 20%)
5 | CN1CCN(C2CCN(c3ccc(Nc4nc(OC5CCOCC5)c(-c5ccccc5)nc4C(N)=O)cc3)CC2)CC1 [compound 12] | + (+ indicates an inhibition less than or equal to 20%)
6 | CN1CCN(C2CCN(c3ccc(Nc4nc(N5CCCCC5)c(-c5ccccc5)nc4C(N)=O)cc3)CC2)CC1 [compound 15] | + (+ indicates an inhibition less than or equal to 20%)
7 | CN1CCN(C2CCN(c3ccc(Nc4nc(O[C@@H]5CCOC5)c(-c5ccccc5)nc4C(N)=O)cc3)CC2)CC1 [compound 16] | + (+ indicates an inhibition less than or equal to 20%)
8 | CN1CCN(C2CCN(c3ccc(Nc4nc(N5CCCC5)c(-c5ccccc5)nc4C(N)=O)cc3)CC2)CC1 [compound 17] | + (+ indicates an inhibition less than or equal to 20%)
9 | CN1CCN(C2CCN(c3ccc(Nc4nc(O[C@H]5CCOC5)c(-c5ccccc5)nc4C(N)=O)cc3)CC2)CC1 [compound 18] | + (+ indicates an inhibition less than or equal to 20%)
10 | COc1nc(Nc2ccc(N3CCC(N4CCN(C)CC4)CC3)cc2)c(C(N)=O)nc1-c1ccccc1 [compound 19, 5-methoxy-3-((4-(4-(4-methylpiperazin-1-yl)piperidin-1-yl)phenyl)amino)-6-phenylpyrazine-2-carboxamide] | + (+ indicates an inhibition less than or equal to 20%)
11 | CN1CCN(C2CCN(c3ccc(Nc4nc(NCCC(C)(C)O)c(-c5ccccc5)nc4C(N)=O)cc3)CC2)CC1 [compound 22] | + (+ indicates an inhibition less than or equal to 20%)
12 | CN1CCN(C2CCN(c3ccc(Nc4nc(N[C@H]5CC[C@@H](O)CC5)c(-c5ccccc5)nc4C(N)=O)cc3)CC2)CC1 [compound 24] | ++ (++ indicates an inhibition from 20% to 50%)
13 | CN1CCN(C2CCN(c3ccc(Nc4nc(OCC(F)(F)F)c(-c5ccccc5)nc4C(N)=O)cc3)CC2)CC1 [compound 25] | + (+ indicates an inhibition less than or equal to 20%)
14 | CN1CCN(C2CCN(c3ccc(Nc4nc(NCCCS(C)(=O)=O)c(-c5ccccc5)nc4C(N)=O)cc3)CC2)CC1 [compound 27] | + (+ indicates an inhibition less than or equal to 20%)
15 | CN(C)CCNc1nc(Nc2ccc(N3CCC(N4CCN(C)CC4)CC3)cc2)c(C(N)=O)nc1-c1ccccc1 [compound 28] | + (+ indicates an inhibition less than or equal to 20%)
16 | CN1CCN(C2CCN(c3ccc(Nc4nc(N5CCC(O)C5)c(-c5ccccc5)nc4C(N)=O)cc3)CC2)CC1 (stereo not drawn) [compound 29] | ++ (++ indicates an inhibition from 20% to 50%)
17 | CN1CCN(C2CCN(c3ccc(Nc4nc(NC5CCC5)c(-c5ccccc5)nc4C(N)=O)cc3)CC2)CC1 [compound 30] | ++ (++ indicates an inhibition from 20% to 50%)
18 | CN1CCN(c2ccc(Nc3nc(NC4CCOCC4)c(-c4ccccc4C(N)=O)nc3C(N)=O)cc2)CC1 [compound 36] | + (+ indicates an inhibition less than or equal to 20%)
